The target in one assay is T1, ACE (Rattus norvegicus, UniProt P47820).
T1 construct: by the ACE contained in the rat serum; from tissue; host or cells: rat serum
T1 sequence (P47820 36-1238 limits assumed): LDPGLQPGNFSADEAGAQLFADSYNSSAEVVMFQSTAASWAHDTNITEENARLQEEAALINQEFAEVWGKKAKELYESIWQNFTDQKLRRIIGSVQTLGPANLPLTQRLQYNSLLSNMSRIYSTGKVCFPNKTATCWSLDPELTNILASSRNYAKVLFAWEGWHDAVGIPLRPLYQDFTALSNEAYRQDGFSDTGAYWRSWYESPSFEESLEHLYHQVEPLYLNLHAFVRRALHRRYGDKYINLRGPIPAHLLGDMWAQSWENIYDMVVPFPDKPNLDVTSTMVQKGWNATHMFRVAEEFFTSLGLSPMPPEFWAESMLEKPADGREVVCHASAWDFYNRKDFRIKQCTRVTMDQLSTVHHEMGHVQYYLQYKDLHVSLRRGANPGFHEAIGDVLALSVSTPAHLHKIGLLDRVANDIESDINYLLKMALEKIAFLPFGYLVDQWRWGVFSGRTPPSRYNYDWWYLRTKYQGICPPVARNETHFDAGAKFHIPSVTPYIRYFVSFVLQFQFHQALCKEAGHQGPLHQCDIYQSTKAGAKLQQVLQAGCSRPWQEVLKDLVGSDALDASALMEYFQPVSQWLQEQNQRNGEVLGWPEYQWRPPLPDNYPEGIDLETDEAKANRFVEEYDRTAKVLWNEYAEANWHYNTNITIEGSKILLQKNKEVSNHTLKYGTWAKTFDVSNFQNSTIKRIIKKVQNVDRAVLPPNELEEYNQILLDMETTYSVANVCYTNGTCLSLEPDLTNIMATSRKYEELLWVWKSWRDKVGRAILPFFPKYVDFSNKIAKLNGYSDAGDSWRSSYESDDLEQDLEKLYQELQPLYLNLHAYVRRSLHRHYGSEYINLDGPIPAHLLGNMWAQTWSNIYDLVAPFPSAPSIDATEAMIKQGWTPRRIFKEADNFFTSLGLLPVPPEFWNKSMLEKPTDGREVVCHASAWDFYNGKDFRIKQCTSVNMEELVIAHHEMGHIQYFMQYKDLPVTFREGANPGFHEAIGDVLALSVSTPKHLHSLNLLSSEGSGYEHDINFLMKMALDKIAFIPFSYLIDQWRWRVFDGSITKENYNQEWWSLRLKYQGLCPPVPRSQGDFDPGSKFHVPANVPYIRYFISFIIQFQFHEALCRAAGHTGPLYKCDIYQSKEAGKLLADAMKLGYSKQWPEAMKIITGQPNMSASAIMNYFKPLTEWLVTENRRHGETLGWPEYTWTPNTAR
Briefly: ACE inhibition: hydrolysis of the ippuril-glycil-glycine artificial substrate by the ACE contained in rat serum. It is filed as biochemical. The text has this: The IC50 values have been calculated by the regression analysis of the linear part of the log dose/percent inhibition curve.

In assay [1] the test system is blood pressure increases induced by angiotensin I. Briefly: Antihypertensive activity i.v. in the anaesthetized ganglion-blocked rat (inhibition of blood pressure increases induced by repeated i.v. injections of angiotensin I). Format: in vivo. The protocol: Dose-dependent antihypertensive activity of selected compounds was calculated after intravenous administration to the anaesthetized ganglion-blocked rat. […] Half-lives (t1/2) of the antihypertensive action were also calculated and reported.

For assay [2], the system named is pressure answer to angiotensin II. Briefly: Influence on the pressure answer to angiotensin II. Format: in vivo. As to conditions: up to the dose of 1 mg kg i.v.

With `CCN(CC(=O)NO)C(=O)[C@@H]1CCCC[C@H]1C(=O)O` [Example 7, trans-(1R,2R)-2[[N-[2-(hydroxyamino)-2-oxoethyl]N-ethylamino]carbonyl]-cyclohexanecarboxylic acid], the IC50 against ACE amounted to 0.0076 µM.

Consider `CN(C(=O)[C@H]1CCCC[C@H]1C(=O)O)C(CCCc1ccccc1)C(=O)NO` (relative stereo) [Example 32, Cis-2[[N-[1-(3-phenylpropyl)-2-(hydroxyamino)-2-oxoethyl]-N-methylamino]carbonyl]-cyclohexanecarboxylic acid], for which the IC50 against ACE stood at 0.135 µM.

Turning to `O=C(NO)C(CCCc1ccccc1)NC(=O)[C@H]1CCCC[C@H]1C(=O)O` (relative stereo) [Example 20, Cis-2[[N-[1-(3-phenylpropyl)-2-(hydroxyamino)-2-oxoethyl]amino]carbonyl]-cyclohexanecarboxylic acid], the IC50 against ACE worked out at 10 µM.

On to `CN(CC(=O)NO)C(=O)[C@@H]1CCCC[C@H]1C(=O)O` (relative stereo) [Example 21, Trans-2-[[N-[2-(hydroxyamino)-2-oxoethyl]-N-methylamino]carbonyl]-cyclohexanecarboxylic acid], for which, at ACE, the IC50 was 0.02 µM. Besides, the “Antihypertensive activity t1/2 (half-life of the antihypertensive action)” value in assay [1] is given as 15 min.

As to `CCN(CC(=O)NO)C(=O)[C@@H]1CCCC[C@H]1C(=O)O` (relative stereo) [Example 2, Trans-2[[N-[2-(hydroxyamino)-2-oxoethyl]-N-ethylamino]carbonyl]- -cyclohexanecarboxylic acid], 0.008 µM corresponded to half-maximal inhibition at ACE (IC50). The “Antihypertensive activity t1/2 (half-life of the antihypertensive action)” value in assay [1] is recorded as 14 min.

With `O=C(NO)C(CNC(=O)[C@H]1CCCC[C@H]1C(=O)O)Cc1ccccc1` (stereo partly shown) [Example 3], at ACE, the IC50 amounted to 3.5 µM.

As to `CN(C(=O)[C@H]1CCCC[C@H]1C(=O)O)C(CCc1ccccc1)C(=O)NO` (stereo partly drawn) [Example 8, Cis-2[[N-[1-(2-phenylethyl)-2-(hydrxyamino)-2-oxoethyl]-N-methylamino]carbonyl]-cyclohexanecarboxylic acid], the IC50 against ACE is 0.062 µM.

At ACE, `CN(CC(=O)NO)C(=O)[C@@H]1CCCC[C@@H]1C(=O)O` [Example 9, Cis-(1S,2R)-2[[N-[2-(hydroxyamino)-2-oxoethyl]-N-methylamino]carbonyl]-cyclohexanecarboxylic acid] yielded an IC50 of 0.0035 µM. Against the preceding molecule, the IC50 is about 18-fold lower.

Molecule `CN(C(=O)[C@H]1CCCC[C@H]1C(=O)O)C(Cc1ccccc1)C(=O)NO` (relative stereo) [Example 29, Cis-2[[N-[1-benzyl-2-(hydroxyamino)-2-oxoethyl]-N-methylamino]carbonyl]-cyclohexanecarboxylic acid] had an IC50 on ACE of 0.03 µM.

Molecule `CN(CC(=O)NO)C(=O)[C@@H]1CCC[C@H]1C(=O)O` (relative stereo) [Example 6, Trans-2[[N-[2-(hydroxyamino)-2-oxoethyl]-N-methylamino]carbonyl]cyclopentanecarboxylic acid] had an IC50 on ACE of 0.73 µM.

In turn, `CCN(CC(=O)NO)C(=O)[C@H]1CCCC[C@H]1C(=O)O` (relative stereo) [Example 26, Cis-2[[N-[2-(hydroxyamino)-2-oxoethyl]-N-ethylamino]carbonyl]cyclohexane-carboxylic acid] displayed an IC50 against ACE of 0.025 µM.

Regarding `O=C(NO)C(Cc1ccccc1)NC(=O)[C@H]1CCCC[C@H]1C(=O)O` (relative stereo) [Example 18, Cis-2[[N-[1-benzyl-2-(hydroxyamino)-2-oxoethyl]amino]carbonyl]-cyclohexane carboxylic acid], at ACE, the concentration for half-maximal inhibition (IC50) stood at 0.4 µM. This IC50 is about 16-fold higher than that of the molecule before.

Regarding `O=C(NO)C(CCc1ccccc1)NC(=O)[C@H]1CCCC[C@H]1C(=O)O` (relative stereo) [Example 19, Cis-2[[N-[1-(2-phenylethyl)-2-(hydroxyamino)-2-oxoethyl]amino]carbonyl]cyclohexanecarboxylic acid], the IC50 against ACE was determined as 28 µM.

On ACE, `CN(CC(=O)NO)C(=O)[C@H]1CCCC[C@H]1C(=O)O` (relative stereo) [Example 4, cis-2[[N-[2-(hydroxyamino)-2-oxoethyl]-N-methylamino]carbonyl]-cyclohexanecarboxylic acid] had an IC50 of 0.006 µM. For the same molecule, in assay [1], the “Antihypertensive activity t1/2 (half-life of the antihypertensive action)” value turned out to be 15 min. The “influence on the pressure answer to angiotensin II” value in assay [2] is given as “has not influenced”.

As for `CN(C(=O)[C@@H]1CCCC[C@H]1C(=O)O)C(Cc1ccccc1)C(=O)NO` (relative stereo) [Example 30, Trans-2[[N-[1-benzyl-2-(hydroxyamino)-2-oxoethyl]-N-methylamino]carbonyl]-cyclohexanecarboxylic acid], half-maximal inhibition on ACE (IC50) was put at 0.03 µM. This counts as double-digit nanomolar.

Molecule `O=C(CNC(=O)[C@H]1CCCC[C@H]1C(=O)O)NO` (relative stereo) [Example 1] had a half-inhibitory concentration (IC50) against ACE of 1.6 µM.

Turning to `CC(=O)ON(C(C)=O)C(=O)CN(C)C(=O)[C@H]1CCCC[C@H]1C(=O)O` (relative stereo) [Example 14, Cis-2-[[N-[2-(N'-acetoxy-N'-acetylamino)-2-oxoethyl]-N-methyl-amino]carbonyl]cyclohexanecarboxylic acid], on ACE, the IC50 was 0.28 µM. In assay [1] (iv, 1 min, angiotensin I-induced pressure increase, at time of maximum effect (1 min)), this molecule had an ED50 of 1.5 mg/kg.
